This is an account of results in ChEMBL document CHEMBL1132223, “Quantitative structure-activity relationship of human neutrophil collagenase (MMP-8) inhibitors using comparative molecular field analysis and X-ray structure analysis” (J Med Chem, 1999).

The target in this assay is Neutrophil collagenase (Homo sapiens, UniProt P22894). In words: Inhibition of human neutrophil collagenase [Matrix Metalloprotease-8, MMP-8].
Sequence of Neutrophil collagenase (P22894 whole entry): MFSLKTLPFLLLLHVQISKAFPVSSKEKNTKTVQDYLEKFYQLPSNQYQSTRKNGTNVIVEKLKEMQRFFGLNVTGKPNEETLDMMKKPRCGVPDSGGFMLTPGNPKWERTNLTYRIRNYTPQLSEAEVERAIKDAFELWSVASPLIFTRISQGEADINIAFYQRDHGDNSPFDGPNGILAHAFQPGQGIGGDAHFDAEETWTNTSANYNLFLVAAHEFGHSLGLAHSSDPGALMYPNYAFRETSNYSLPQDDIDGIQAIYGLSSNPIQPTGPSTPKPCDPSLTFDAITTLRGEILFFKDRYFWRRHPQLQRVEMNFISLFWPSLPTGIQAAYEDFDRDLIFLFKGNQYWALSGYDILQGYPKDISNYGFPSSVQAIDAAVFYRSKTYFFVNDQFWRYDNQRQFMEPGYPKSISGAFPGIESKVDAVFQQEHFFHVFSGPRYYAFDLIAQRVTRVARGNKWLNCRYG

For the molecule `COc1ccc(S(=O)(=O)N2Cc3cc(NC(=O)[C@H](CC(=O)OC(C)(C)C)NC(=O)OCc4ccccc4)ccc3C[C@H]2C(=O)NO)cc1`, half-maximal inhibition (IC50) was put at 0.01 µM.

Molecule `CNC(=O)c1ccc(Oc2ccc(S(=O)(=O)N3Cc4ccccc4C[C@@H]3C(=O)C(=O)O)cc2)cc1` returned an IC50 of 0.04 µM.

`O=C(NO)[C@H]1Cc2ccccc2CN1S(=O)(=O)Cc1ccccc1` registered an IC50 of 3 µM.

For the molecule `COc1ccc(S(=O)(=O)N2Cc3ccccc3C[C@H]2C(=O)NO)cc1`, the IC50 was found to be 1 µM.

The molecule `O=C(O)C(=O)[C@H]1Cc2ccccc2CN1S(=O)(=O)c1ccc(-c2ccon2)s1` yielded an IC50 of 0.6 µM.

In turn, `COc1ccc(S(=O)(=O)N2Cc3ncn(C)c3C[C@@H]2C(=O)O)cc1` returned an IC50 of 10 µM.

In the case of `O=C(NO)[C@H]1Cc2ccccc2CN1S(=O)(=O)c1ccc(C(F)(F)F)cc1`, it took 0.05 µM to reach half-maximal inhibition (IC50).

The molecule `O=C(NO)[C@H]1Cc2ccccc2CN1S(=O)(=O)c1ccc(-c2ccccc2)cc1` returned an IC50 of 0.002 µM.

Turning to `COc1ccc(S(=O)(=O)N2Cc3cc(O)ccc3C[C@@H]2C(=O)NO)cc1`, the IC50 was found to be 0.001 µM.

For the molecule `O=C(O)C(=O)[C@H]1Cc2ccccc2CN1S(=O)(=O)c1ccc(-c2ccc(Cl)cc2)cc1`, the midpoint of inhibition, the IC50, lay at 0.005 µM.

Consider `CC(C)(C)OC(=O)Nc1ccc2c(c1)CN(S(=O)(=O)c1ccc(-c3ccc(F)cc3)cc1)[C@@H](C(=O)NO)C2`, for which the concentration for half-maximal inhibition (IC50) came out at 0.01 µM.

With `O=C(NO)[C@H]1Cc2ccccc2CN1S(=O)(=O)c1ccc(-c2ccon2)s1`, the IC50 worked out at 0.008 µM.

With `CSc1nccc(-c2ccc(S(=O)(=O)N3Cc4ccccc4C[C@@H]3C(=O)C(=O)O)s2)n1`, 1 µM corresponded to half-maximal inhibition (IC50).

Regarding `CCOC(=O)Nc1ccc(S(=O)(=O)N2Cc3ccccc3C[C@@H]2C(=O)NO)cc1`, the IC50 came out at 0.03 µM.

In turn, `O=C(O)C(=O)[C@H]1Cc2ccccc2CN1S(=O)(=O)c1ccc(-c2nc3ccccc3o2)cc1` gave an IC50 of 0.08 µM.

The molecule `O=C(NO)[C@H]1Cc2ccccc2CN1S(=O)(=O)c1ccc(-c2ccc(Cl)cc2)cc1` yielded an IC50 of 0.003 µM.

In turn, `CN(C)c1ccc(Oc2ccc(S(=O)(=O)N3Cc4ccccc4C[C@@H]3C(=O)C(=O)O)cc2)cc1` had an IC50 of 0.03 µM.

Consider `CN(C)c1ccc(-c2ccc(S(=O)(=O)N3Cc4ccccc4C[C@@H]3C(=O)C(=O)O)cc2)cc1`, for which the IC50 amounted to 0.001 µM.

`O=C(NCc1csc(S(=O)(=O)N2Cc3ccccc3C[C@@H]2C(=O)NO)c1)c1ccccc1` came in with a 50% inhibitory concentration (IC50) of 0.8 µM.

For `O=C(O)C(=O)[C@H]1Cc2ccc([N+](=O)[O-])cc2CN1S(=O)(=O)c1ccc(-c2ccc(F)cc2)cc1`, the IC50 was found to be 0.04 µM.

The molecule `COc1ccc(OC(=O)Nc2cccc(S(=O)(=O)N3Cc4ccccc4C[C@@H]3C(=O)NO)c2)cc1` displayed an IC50 of 0.2 µM.

As to `O=C(NO)[C@H]1Cc2ccccc2CN1S(=O)(=O)CCc1ccncc1`, half-maximal inhibition (IC50) was put at 0.03 µM.

`O=C(O)C(=O)[C@H]1Cc2ccccc2CN1S(=O)(=O)CCc1ccc(-c2ccccc2)cc1` showed an IC50 of 0.02 µM.

Turning to `N#Cc1ccc(Oc2ccc(S(=O)(=O)N3Cc4ccccc4C[C@@H]3C(=O)C(=O)O)cc2)cc1`, the IC50 is 0.01 µM.

`COc1ccc(S(=O)(=O)N2Cc3cc(NC(=O)[C@H](C)NC(=O)OC(C)(C)C)ccc3C[C@H]2C(=O)NO)cc1` came in with an IC50 of 0.002 µM.

Molecule `CC(C)(C)OC(=O)Nc1ccc2c(c1)C[C@H](C(=O)C(=O)O)N(S(=O)(=O)c1ccc(-c3ccc(F)cc3)cc1)C2` yielded an IC50 of 0.03 µM.

In turn, `COc1ccc(S(=O)(=O)N2Cc3cc([N+](=O)[O-])ccc3C[C@@H]2C(=O)NO)cc1` gave an IC50 of 0.008 µM.

`CC(=O)Nc1ccc(S(=O)(=O)N2Cc3ccccc3C[C@@H]2C(=O)NO)cc1`: half-maximal inhibition (IC50) required 0.1 µM.

As to `O=C(O)C(=O)[C@H]1Cc2ccccc2CN1S(=O)(=O)c1ccc(/C=C/c2ccccc2)cc1`, the half-maximal inhibitory concentration (IC50) was 0.06 µM.

On to `O=C(O)C(=O)[C@H]1Cc2ccccc2CN1S(=O)(=O)c1ccc(-n2nccn2)cc1`, for which half-maximal inhibition (IC50) required 0.09 µM.

As for `O=C(O)C(=O)[C@H]1Cc2cc([N+](=O)[O-])ccc2CN1S(=O)(=O)c1ccc(-c2ccc(Cl)cc2)cc1`, the IC50 came to 0.02 µM.

In turn, `O=C(NO)[C@H]1Cc2ccccc2CN1S(=O)(=O)c1ccc2ccccc2c1` came in with a concentration for half-maximal inhibition (IC50) of 0.07 µM.

`CSc1nccc(-c2ccc(S(=O)(=O)N3Cc4ccccc4C[C@@H]3C(=O)NO)s2)n1` registered an IC50 of 0.02 µM.

For `O=C(O)C(=O)[C@H]1Cc2ccccc2CN1S(=O)(=O)c1ccc2oc3ccccc3c2c1`, the half-inhibitory concentration (IC50) was found to be 0.5 µM.

As for `Nc1ccc2c(c1)CN(S(=O)(=O)c1ccc(-c3ccc(F)cc3)cc1)[C@@H](C(=O)NO)C2`, half-maximal inhibition (IC50) required 0.002 µM.

`O=C(NO)[C@H]1Cc2ccccc2CN1S(=O)(=O)Cc1ccc(-c2ccccn2)s1` registered an IC50 of 0.002 µM.

Regarding `COc1ccc(S(=O)(=O)N2Cc3cc(NC(=O)CCC(=O)O)ccc3C[C@@H]2C(=O)NO)cc1`, inhibition was half-maximal at 0.04 µM (IC50).

In turn, `COc1ccc(S(=O)(=O)N2Cc3cc(NC(=O)[C@H](C)N)ccc3C[C@H]2C(=O)C(=O)O)cc1` registered an IC50 of 2 µM.

With `O=C(Nc1cccc(S(=O)(=O)N2Cc3ccccc3C[C@@H]2C(=O)NO)c1)c1ccccc1O`, the midpoint of inhibition, the IC50, lay at 0.2 µM.

Molecule `COC(=O)c1csc(S(=O)(=O)N2Cc3ccccc3C[C@@H]2C(=O)NO)c1OC` returned an IC50 of 0.08 µM.

Molecule `CCCCOc1ccc(S(=O)(=O)N2Cc3ccccc3C[C@@H]2C(=O)NO)cc1` had an IC50 of 0.002 µM.

`O=C(NO)[C@H]1Cc2ccccc2CN1S(=O)(=O)c1ccc2[nH]c(-c3ccccc3)nc2c1` returned an IC50 of 0.04 µM.

With `CCCCCCCCCCCCCCCCS(=O)(=O)N1Cc2ccccc2C[C@@H]1C(=O)NO`, the 50% inhibitory concentration (IC50) came out at 3 µM.

Take `COc1ccc(S(=O)(=O)N2Cc3ncn(C)c3C[C@@H]2C(=O)NO)cc1`: the IC50 came out at 0.003 µM.

`Nc1ccc2c(c1)CN(S(=O)(=O)c1ccc(-c3ccc(Cl)cc3)cc1)[C@@H](C(=O)C(=O)O)C2`: the IC50 is 0.007 µM.

Take `O=C(NO)[C@H]1Cc2ccccc2CN1S(=O)(=O)c1ccc(OCc2ccc(F)cc2)cc1`: inhibition was half-maximal at 0.002 µM (IC50).

`CN(C)c1ccc(-c2ccc(S(=O)(=O)N3Cc4ccccc4C[C@@H]3C(=O)NO)cc2)cc1` registered an IC50 of 0.002 µM.

`O=C(NO)[C@H]1Cc2ccccc2CN1S(=O)(=O)c1cc(Br)c(Br)s1` displayed an IC50 of 0.5 µM.

Consider `O=C(NO)[C@H]1Cc2ccccc2CN1S(=O)(=O)c1cc(S(=O)(=O)c2ccccc2)cs1`, for which the IC50 was determined as 2 µM.

`O=C(NO)[C@H]1Cc2ccccc2CN1S(=O)(=O)c1ccc(N2CCOCC2)cc1`: half-maximal inhibition (IC50) was put at 0.1 µM.

Consider `COc1ccc(S(=O)(=O)N2Cc3cc(NC(=O)OC(C)(C)C)ccc3C[C@@H]2C(=O)NO)cc1`, for which the IC50 was determined as 0.003 µM.

On to `COc1ccc(S(=O)(=O)N2Cc3ccccc3C[C@@H]2C(=O)NO)cc1`, for which the IC50 is 0.004 µM.

`COc1ccc(S(=O)(=O)N2Cc3cc(N)ccc3C[C@@H]2C(=O)C(=O)O)cc1` returned an IC50 of 2 µM.

In turn, `O=C(O)C(=O)C1Cc2ccccc2CN1S(=O)(=O)c1ccc(-c2ccc(Cl)cc2)cc1` (single isomer, unassigned) came in with an IC50 of 3 µM.

The IC50 is the point on the concentration scale where inhibition reaches its midpoint.
